Source: publication PMC10829512, “Transport of metformin metabolites by guanidinium exporters of the small multidrug resistance family” (The Journal of General Physiology, 2024)
Read-outs that look alike come from different tables or passages of the source.

How the values were obtained:
Gdx-Clo [1] = biological target: T1, Gdx-Clo (Clostridiales bacterium oral taxon 876, UniProt U2EQ00); test: Tryptophan fluorescence substrate binding; parameters: species or system Clostridales oral taxon 876
T1 sequence (U2EQ00 1-105): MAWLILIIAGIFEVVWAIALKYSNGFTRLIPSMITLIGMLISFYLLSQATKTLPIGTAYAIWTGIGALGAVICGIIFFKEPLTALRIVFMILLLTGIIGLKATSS
Protocol: Fluorescence emission spectra (λex = 280 nm, […]) were collected for 1 µM purified protein in assay buffer containing 200 mM NaCl, 10 mM HEPES, 10 mM bicine, 10 mM NaPO4, and 5 mM DM, with pH adjusted from 6.5 to 9.0. Substrate was added from a stock solution prepared in assay buffer. For Gdm^+ titrations, the change in fluorescence, F, as a function of substrate fit to a single site binding isotherm, ∆F=(Fmax[S]/Kd+[S]). (3)
To derive the Ka values and Kd values from the apparent Kd measured as a function of pH, we used the following equation, which uses the approximation that the protonatable E13 sidechains have equal Ka values: Kd,app=(Kd)*(1+([H^+]/Ka))*(1+([H^+]/Ka)). (5)

Gdx-Clo [2] = biological target: T1, Gdx-Clo; test: Pyranine stoichiometry assay in proteoliposomes; type: biochemical, Clostridales oral taxon 876; details: 10-fold substrate gradient, equilibrium at −60 mV
Protocol: Unilamellar liposomes were formed by extrusion through a 400-nm membrane filter and the external pyranine was removed by passing liposomes through a Sephadex G-50 column spin column equilibrated in an internal buffer with substrate. The external assay buffers contained 25 mM HEPES, pH 7.53, 0.4 mM substrate, and varying KCl concentration (3–46 mM) to establish the membrane potential, with NaCl to bring the total salt concentration to 200 mM. Proteoliposomes were diluted 200-fold into the external buffer, and after ∼30 s to establish a baseline, valinomycin (final concentration 0.2 ng/ml) was added together with the substrate (final concentration 4 mM). Fluorescence spectra were monitored (λex = 455 nm; λem = 515 nm) for ∼300 s. The membrane potential was calculated using the Nernst potential for K^+: ψcalc=RT/Fln[K^+]out/[K^+]in. (1)
Fluorescence emission time courses were corrected for baseline drift measured prior to substrate and valinomycin addition. The stoichiometry was determined from the voltage at which electrochemical equilibrium occurred (no change in fluorescence over time) using the following equation: Erev=(n/m−n*RT/Fln[substrate^+]in/[substrate^+]out), (2) where n and m represent the stoichiometric coefficients of substrate and protons, respectively. […]

Gdx-pPro = Gdx-pPro (Citrobacter freundii, UniProt O69279); details: for Transport currents in substrate screen: 2 mM substrate
Sequence of Gdx-pPro (O69279 2-105): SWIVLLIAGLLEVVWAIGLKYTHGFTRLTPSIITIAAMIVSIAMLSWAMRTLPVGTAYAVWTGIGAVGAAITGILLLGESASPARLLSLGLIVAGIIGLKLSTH

[3] = pH 6.5, tryptophan fluorescence, mean ± SEM, read-out: Kd (apparent) for substrate binding to Gdx-Clo
[4] = pH 7.0, tryptophan fluorescence, mean ± SEM, read-out: Kd (apparent) for substrate binding to Gdx-Clo
[5] = pH 7.5, tryptophan fluorescence, mean ± SEM, read-out: Kd (apparent) for substrate binding to Gdx-Clo
[6] = pH 8.0, tryptophan fluorescence, mean ± SEM, read-out: Kd (apparent) for substrate binding to Gdx-Clo
[7] = pH 8.5, tryptophan fluorescence, mean ± SEM, read-out: Kd (apparent) for substrate binding to Gdx-Clo
[8] = pH-independent Kd, glutamates assumed to have equal Ka, read-out: Kd from fit of apparent Kd versus pH to Eq. 5

N=C(N)N [Gdm^+, guanidinium]
Kd (Gdx-Clo [1]; [3]): 4300 ± 1000 µM | Kd (Gdx-Clo [1]; [4]): 1500 ± 300 µM | Kd (Gdx-Clo [1]; [5]): 960 ± 120 µM | Kd (Gdx-Clo [1]; [6]): 660 ± 80 µM | Kd (Gdx-Clo [1]; [7]): 480 ± 100 µM | Kd (Gdx-Clo [1]; [8]): 600 µM | Proton coupling stoichiometry (Gdx-Clo [2]): 2 H^+: 1 solute | Transport currents in substrate screen (Gdx-pPro): negative capacitive currents | Maximal velocity for Gdm+ relative to guanylurea (Gdx-pPro; substrate at fivefold Km, normalized to Fluc-Bpe fluoride current): approximately twofold higher

N=C(N)NC(N)=O [Guanylurea, guanylurea]
Kd (Gdx-Clo [1]; [3]): 860 ± 220 µM | Kd (Gdx-Clo [1]; [4]): 190 ± 20 µM | Kd (Gdx-Clo [1]; [5]): 120 ± 20 µM | Kd (Gdx-Clo [1]; [6]): 59 ± 1 µM | Kd (Gdx-Clo [1]; [7]): 91 ± 16 µM | Kd (Gdx-Clo [1]; pH 9.0, tryptophan fluorescence, mean ± SEM, read-out: Kd (apparent) for substrate binding to Gdx-Clo): 63 ± 5 µM | Kd (Gdx-Clo [1]; [8]): 70 µM | Proton coupling stoichiometry (Gdx-Clo [2]): 2 H^+: 1 solute | Transport currents in substrate screen (Gdx-pPro): negative capacitive currents
